According to patent publication US6325989A, “Form of dipeptidylpeptidase IV (CD26) found in human serum” (Dana-Farber Cancer Institute, Inc., priority 1995, dated 2001):
Residues, ends and D or L forms follow the SMILES beside them. *: point of attachment. pNA = O=[N+]([O-])c1ccc(N*)cc1

Columns and labels:
[1] = tested on: soluble serum DPPIV/CD26, 175 kDa form, purified from normal human serum; assay: DPPIV activity assay (hydrolysis of Gly-Pro-pNA; Michaelis-Menten kinetics and inhibition); assay type: biochemical
Procedure: (§1) The DPPIV enzyme activities of the rsCD26 and serum DPPIV were analyzed by Michaelis-Menten kinetics by assessing kinetics of hydrolysis of substrate at different concentrations. […] To further exclude the possibility that we had purified irrelevant aminopeptidases which, working in concert or by sequential hydrolysis, could release the pNA chromophore from substrate, we tested a number of substrates which could be hydrolyzed by non-DPPIV aminopeptidases. One candidate for sequential hydrolysis is aminopeptidase M (3.4.11.2), but no hydrolysis of Ala-pNA, Arg-pNA or Leu-pNA was observed and activity by aminopolypeptidase (3.4.11.14) may be similarly excluded. The substrate succinyl-Gly-Pro-pNA was also not hydrolyzed. The only substrate apart from the dipeptide chromatogen Gly-Pro-pNA which could be hydrolyzed was Val-Ala-pNA, which was cleaved by both the serum DPPIV and rsCD26 (relative to rate of hydrolysis of Gly-Pro-pNA, hydrolysis of Val-Ala-pNA was 0.098 and 0.079, for rsCD26 and serum DPPIV, respectively). Although DPPIV primarily hydrolyses dipeptides with a proline in the penultimate position, it is well documented that alanine in the penultimate position may also render a dipeptide sequence susceptible to cleavage by DPPIV (8). […]
The primary substrate used for determining DPPIV activity in all assays was Gly-Pro-p-nitroanilide (Gly-Pro-pNA; Sigma), which is hydrolyzed by DPPIV to release pNA absorbing strongly at 405 nm. […] Inhibition of the hydrolysis of Gly-Pro-pNA was determined in the presence of the specific DPPIV inhibitor Diprotin A (Bachem, King of Prussia, Pa.). […] The pH optimum was determined substituting phosphate buffer (100 mM, pH4.5-pH9) in place of standard incubation buffer.
Serum DPPIV was prepared by isolating from 100 ml of pooled normal human male AB serum the fraction of protein precipitated by 50-70% saturated ammonium sulfate. […] The DPPIV activity was eluted by a 0-0.5M NaCl gradient in equilibration buffer and all DPPIV activity was found in the 10 mM-50 mM NaCl eluate (determined by conductance). […]

[2] = target: T1, recombinant soluble CD26 (rsCD26), full extracellular domain of human T cell membrane CD26/DPPIV, 105 kDa form, from transfected CHO cells (Homo sapiens, UniProt P27487); assay: as above; assay type: biochemical
T1 construct: The full extracellular domain of T cell membrane-expressed CD26 (rsCD26); made in house; host or cells: transfected CHO cells
Procedure: as §1, with “respectively).” for “respectively). Although DPPIV primarily hydrolyses dipeptides with a proline in the penultimate position, it is well documented that alanine in the penultimate position may also render a dipeptide sequence susceptible to cleavage by DPPIV (8).”
The primary substrate used for determining DPPIV activity in all assays was Gly-Pro-p-nitroanilide (Gly-Pro-pNA; Sigma), which is hydrolyzed by DPPIV to release pNA absorbing strongly at 405 nm. […] Inhibition of the hydrolysis of Gly-Pro-pNA was determined in the presence of the specific DPPIV inhibitor Diprotin A (Bachem, King of Prussia, Pa.). […]

[3] = Lineweaver-Burke transformation
[4] = unit defined at pH7.6 and 20° C.

T1 sequence (P27487 29-766 limits assumed): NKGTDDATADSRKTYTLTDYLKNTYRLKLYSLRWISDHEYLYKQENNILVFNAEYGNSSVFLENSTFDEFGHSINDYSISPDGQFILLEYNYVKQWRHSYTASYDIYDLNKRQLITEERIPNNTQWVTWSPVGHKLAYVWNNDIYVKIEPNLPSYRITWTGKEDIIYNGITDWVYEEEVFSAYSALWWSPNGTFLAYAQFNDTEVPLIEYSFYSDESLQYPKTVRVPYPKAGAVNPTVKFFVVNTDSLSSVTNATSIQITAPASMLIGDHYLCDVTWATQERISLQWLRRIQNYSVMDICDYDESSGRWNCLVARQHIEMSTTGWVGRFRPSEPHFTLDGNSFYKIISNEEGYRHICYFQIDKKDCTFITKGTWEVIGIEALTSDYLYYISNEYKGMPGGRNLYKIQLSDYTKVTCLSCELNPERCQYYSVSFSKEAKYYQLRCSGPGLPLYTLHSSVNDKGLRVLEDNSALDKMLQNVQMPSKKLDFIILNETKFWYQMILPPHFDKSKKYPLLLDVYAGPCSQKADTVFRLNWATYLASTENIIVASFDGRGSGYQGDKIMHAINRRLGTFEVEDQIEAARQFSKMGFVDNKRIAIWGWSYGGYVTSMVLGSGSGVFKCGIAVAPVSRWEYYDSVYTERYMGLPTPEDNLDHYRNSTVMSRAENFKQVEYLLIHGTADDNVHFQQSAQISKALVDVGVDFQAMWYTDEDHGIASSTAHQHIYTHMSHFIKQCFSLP

Km [1, 3] [µM] | Km [2, 3] [µM] | Vmax, using Gly-Pro-pNA as substrate [2, 4] [U/nmol rsCD26] | SMILES | Vmax, using Gly-Pro-pNA as substrate [1, 4] [U/nmol serum DPPIV] | IC50 ([1]; substrate Gly-Pro-pNA) [µM]
280 | 280 | 1.52 | NCC(=O)N1CCC[C@H]1C(=O)Nc1ccc([N+](=O)[O-])cc1 [Gly-Pro-pNA, Gly-Pro-p-nitroanilide] (H-Gly-Pro-pNA) | 0.65 | –
– | – | – | CC[C@H](C)[C@H](N)C(=O)N1CCC[C@H]1C(=O)N[C@H](C(=O)O)[C@@H](C)CC [Diprotin A] | – | 250
